Laboratory results: publication PMC4596572, “Ligand Discovery for the Alanine-Serine-Cysteine Transporter (ASCT2, SLC1A5) from Homology Modeling and Virtual Screening” (PLoS Computational Biology, 2015)
Like-named read-outs stand apart in the source and are kept apart here.

Target: T1, rat ASCT2 (Rattus norvegicus, UniProt D3ZJ25)
T1 construct: The coding region of the cDNA was subcloned into the EcoRI site of the pBK-CMV vector; expressed in transfected cells; host or cells: HEK293 (human embryonic kidney), transient transfection, pBK-CMV vector
T1 sequence (D3ZJ25 1-555): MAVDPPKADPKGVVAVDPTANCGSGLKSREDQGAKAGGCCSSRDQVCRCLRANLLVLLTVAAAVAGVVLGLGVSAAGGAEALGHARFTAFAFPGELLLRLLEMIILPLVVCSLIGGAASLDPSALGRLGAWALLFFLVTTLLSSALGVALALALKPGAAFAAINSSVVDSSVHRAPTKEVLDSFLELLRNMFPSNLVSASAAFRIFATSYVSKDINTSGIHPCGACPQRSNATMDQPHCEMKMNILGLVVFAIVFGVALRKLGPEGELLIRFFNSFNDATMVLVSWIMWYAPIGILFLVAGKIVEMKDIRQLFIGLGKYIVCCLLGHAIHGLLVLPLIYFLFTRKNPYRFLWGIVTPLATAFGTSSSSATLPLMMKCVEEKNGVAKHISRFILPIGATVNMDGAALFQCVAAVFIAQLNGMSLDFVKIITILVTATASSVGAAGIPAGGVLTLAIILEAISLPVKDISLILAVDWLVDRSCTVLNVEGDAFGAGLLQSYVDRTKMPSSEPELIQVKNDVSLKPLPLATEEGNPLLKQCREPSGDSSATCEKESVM
Experiment: Whole-cell patch-clamp recording of ASCT2-associated anion current in transfected HEK293 cells
Type: cell-based
Settings: for Km: apparent Km for the active compounds from anion current dose response, called Ki in text for the inhibitors L-DOPS and γ-FBP; for Imax, maximum currents relative to 1 mM alanine: whole-cell anion current, membrane potential 0 mV, internal 130 mM NaSCN and 10 mM alanine, negative = outward current (inhibitor)
Excerpt: We used transporter-mediated anion current as a measure of transport/inhibition activity […] We have previously shown that anion current is a measure of transport activity, due to the kinetic coupling of transport and anion flux, and this fact is also well established for the homologous glutamate transporters, which have a much more rigorously determined pharmacology. Anion current is activated when the transporter visits certain states in the transport cycle, such as the fully Na^+/substrate occupied state (substrate-induced anion conductance), or the Na^+-bound state (leak conductance). Thus, transported substrates induce anion current and non-transported inhibitors block the leak anion current. […] Functional characterization by patch clamping is a powerful approach when combined with virtual screening that prioritizes molecules from large libraries, but precludes screening of large amounts of compounds due to its labor-intensive nature.
cDNA coding for rat ASCT2 was kindly provided by S. Bröer. The coding region of the cDNA was subcloned into the EcoRI site of the pBK-CMV vector (Stratagene). The cDNA construct was used to transiently transfect human embryonic kidney cells (HEK293, ATCC No. CGL 1573) with leptrime reagent (Polyplus, Ilkrich, France). Transfection was performed as detailed in the supplier’s instructions. Electrophysiological recordings were performed 24–48 h after transfection.
ASCT2-associated whole-cell currents were recorded with an Adams & List EPC7 amplifier (HEKA, Lambrecht, Germany) using voltage-clamp conditions. Open-tip electrode resistances were 2–3 MΩ and the series resistance (R S) was 5–8 MΩ. R S was not compensated in the recordings, as compensation had no effect on the magnitude of the observed currents. The extracellular bath solution contained (in mM): 140 NaMES, 2 MgGluconate2, 2 CaGluconate2, and 10 HEPES (MES = methanesulfonic acid, pH 7.4 / NaOH). The pipette solution contained (in mM): 130 NaSCN, 2 MgCl2, 10 EGTA, 10 HEPES, and 10 L-alanine/cysteine (pH 7.3 / NaOH). Using this intracellular solution, the transporters operate in the Na^+/alanine exchange mode. Here, external alanine is exchanged with internal alanine in the absence of net transport. The exchange mode is associated with the activation of an uncoupled anion current, which was used as an indirect measure of transport activity. The currents were low pass filtered at 3 kHz (EPC7 built-in filter) and digitized with a digitizer board (Digidata 1200, Axon Instruments, Foster City, CA, USA) at a sampling rate of 10–50 kHz (controlled by software, Axon PClamp7). All experiments were performed at room temperature. Rapid solution exchange was essentially performed as described previously. Briefly, substrates and inhibitors were applied to the ASCT2-expressing HEK293 cells with a quartz tube (350 μm tube diameter) positioned at a distance of ≈0.5 mm to the cell. The linear flow rate of the solutions emerging from the opening of the tube was approximately 5–10 cm/s.

Row | SMILES | Km [µM] | Imax, maximum currents relative to 1 mM alanine | Anion current response / ligand character (whole-cell current, result in words) | Ki (absence of alanine, read-out: apparent Ki in the absence of alanine) [µM] | Concentration down to which alanine activation is alleviated (alanine + compound) [µM] | Ki (alanine-induced currents (100 μM alanine), read-out: Ki in the presence of alanine) [µM] | Response relative to saturating [alanine] (outward current)
1 | NC1(C(=O)O)COC1 | 220 ± 20 | 1.17 ± 0.13 | – | – | – | – | –
2 | NC(CCl)C(=O)O (centres unmarked) [Chloroalanine] | 900 ± 120 | 1.28 ± 0.22 | activated inwardly-directed anion currents | – | – | – | –
3 | O=C(O)C1CC(Cc2ccccc2F)CN1 (centres unmarked) [γ-FBP] | 87 ± 22 | -0.64 ± 0.13 | – | 87 ± 22 | ≥ 100 | 250 ± 75 | -0.64 ± 0.13
